A word on the Ki: it is a measure of affinity in units of concentration, obtained from inhibition or displacement. Read a low Ki as higher affinity.

17 compounds from BindingDB's records for doi:10.1002/1439-7633(20010504)2 (University of NeuchÂTel, 2001) can be followed below.

The experiment addresses T1, Delta-aminolevulinic acid dehydratase (Escherichia coli (strain K12), UniProt P0ACB2).
T1 sequence (P0ACB2 whole entry): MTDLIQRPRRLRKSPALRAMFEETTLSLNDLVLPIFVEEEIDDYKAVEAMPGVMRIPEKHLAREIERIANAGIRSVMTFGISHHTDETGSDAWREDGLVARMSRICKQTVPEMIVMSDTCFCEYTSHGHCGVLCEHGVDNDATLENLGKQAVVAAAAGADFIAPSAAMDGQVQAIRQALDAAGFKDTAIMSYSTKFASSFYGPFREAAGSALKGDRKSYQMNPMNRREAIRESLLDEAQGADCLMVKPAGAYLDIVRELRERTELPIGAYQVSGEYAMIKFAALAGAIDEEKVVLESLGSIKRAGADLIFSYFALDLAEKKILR
The experiment in a line: PBGS Assay. The note with it: pH 8.1; 37 °C. From the text:
The PBGS assay is a colorimetric assay based on the reaction between PBG and 4-dimethylaminobenzaldehyde (Ehrlich's reagent).

`CC(=O)CCC(=O)O` [Substrate analogue, 8] had a Ki of 2.2 mM.

In turn, `O=C(O)CCC(=O)CF` [Substrate analogue, 9] showed an inhibitory constant (Ki) of 0.085 mM.

In turn, `COC(=O)CCC(=O)O` [Substrate analogue, 10] gave a Ki of 38.4 mM.

Take `CNC(=O)CCC(=O)O` [Substrate analogue, 12]: affinity was put at a Ki of 36.4 mM.

`CC(=O)OCC(=O)O` [Substrate analogue, 13] had a Ki of 24.5 mM.

In turn, `NCC(=O)OCC(=O)O` [Substrate analogue, 14] had a Ki of 18.2 mM.

With `CC(=O)NCC(=O)O` [Substrate analogue, 15], the Ki is 18.8 mM.

`CC(=O)CC[N+](=O)[O-]` [Substrate analogue, 17] displayed a Ki of 0.028 mM.

The compound `O=C(CF)CC[N+](=O)[O-]` [Substrate analogue, 18] had a Ki of 0.021 mM.

With `COC(=O)CC[N+](=O)[O-]` [Substrate analogue, 19], the Ki is 1.88 mM.

The compound `O=C(O)CC[N+](=O)[O-]` [Substrate analogue, 20] came in with a Ki of 44.9 mM.

In turn, `COC(=O)CCC(=O)NCC(=O)CCC(=O)O` [Substrate analogue, 24] displayed a Ki of 0.243 mM.

`COC(=O)CCC(=O)NCC(=O)CC[N+](=O)[O-]` [Substrate analogue, 28]: the Ki is 0.02 mM.

In turn, `O=C(O)CCC(=O)CCCCC[N+](=O)[O-]` [Substrate analogue, 31] showed a Ki of 4.9 mM.

In turn, `O=C(O)CCCCNC(=O)CCC(=O)O` [Substrate analogue, 32] had a Ki of 22.9 mM.

`O=C(O)CCCCNC(=O)CC[N+](=O)[O-]` [Substrate analogue, 33] gave a Ki of 18.2 mM.

For `O=C(O)CCC(=O)O` [Succinic acid, 6], the Ki came out at 12.5 mM.
